# Assays:
# [1] = system: healthy subjects; test: Holter ECG, mean hourly heart rate and AUEC, two-way cross-over up-titration study; assay type: in vivo, human; conditions: for mean hourly HR change from baseline at nadir (Holter): p <0.05 vs. baseline; for mean hourly HR change from baseline (Holter): Day 3, 2 h post-dose
# Method: In a single-center, double-blind, placebo-controlled, randomized, two-way cross-over study, 32 healthy subjects (15 males) received placebo on Day 1 followed by multiple-dose administration of either ponesimod or placebo (ratio 3:1). Ponesimod was administered alternately using regimen A (incremental dose increase from 2 to 20 mg) or B (10 mg for 7 days followed by a single-dose administration of 20 mg). Cardiodynamic (Holter and 12-lead ECG), pharmacokinetic, pharmacodynamic (total lymphocyte count), and safety variables were assessed.
# The enrolled subjects came to the study center for each treatment period on Day −2 and participated in a run-in (all study procedures performed without study drug administration) on Day −1. On Day 1, subjects were randomized to one of the two possible sequences of the two up-titration regimens A and B (ratio 1:1). On Day 1, all subjects received placebo; the first study drug administration (or its matching placebo) occurred on Day 2. Regimen A consisted of the novel up-titration regimen: ponesimod was administered once daily (o.d.) orally at a dose of 2 mg on Day 2 and Day 3, 3 mg on Day 4 and Day 5, 4 mg on Day 6 and Day 7, 5 mg on Day 8, 6 mg on Day 9, 7 mg on Day 10, 8 mg on Day 11, 9 mg on Day 12, 10 mg on Day 13 and Day 14, and 20 mg on Day 15. The reference regimen (regimen B) was based on previous studies (Olsson T. et al., Oral ponesimod in relapsing-remitting multiple sclerosis: a randomised phase II trial. J Neurol Neurosurg Psychiatry. 2014; 85 (11): 1198-1208; and Vaclavkova A. et al., Oral ponesimod in patients with chronic plaque psoriasis: a randomised, double-blind, placebo-controlled phase 2 trial. Lancet. 2014; 384 (9959): 2036-2045) and consisted of an o.d. oral administration of ponesimod at a dose of 10 mg for 7 days (i.e., from Day 2 to Day 8) and 20 mg on Day 9. From Day 10 to Day 15 subjects received o.d. the matching placebo. In the placebo group (1:1 sex ratio), subjects received placebo from Day 1 to Day 15. All treatments were administered at the same time in the morning (fasted condition) with approximately 240 mL of water.
# Cardiodynamic endpoints were assessed using Holter and 12-lead ECG. The 24-h Holter recordings were performed on Day -1, Day 1, Day 2, Day 9, Day 13, and Day 15. The 12-h Holter recordings were performed on the other days. In addition, Holter data were used to estimate the area under the effect curve (AUEC) for HR. 12-lead ECGs were performed from Day −1 to Day 16 at pre-dose and 1, 2, 3, 4, 5, 6, 8, 10, and 12 h after study drug administration. An additional 12-lead ECG recording was performed at EOFP and EOS. Heart rate nadir, Emax (maximum decrease of mean hourly HR from baseline, which was defined as the mean of the time-matched assessments measured on Day −1 and Day 1 pre-dose), and occurrence of values of interest (HR <45 bpm, HR decrease from baseline >20 bpm, and PR interval increase from baseline >20 ms), and AV-blocks (i.e., PR interval >210 ms) were obtained with 12-lead ECG.
# Cardiodynamic and pharmacodynamic data are expressed as mean±SD. Repeated measure one-way ANOVAs followed by Tukey's multiple-comparisons tests were used to perform inter-group (i.e., placebo vs. regimen A vs. regimen B) comparisons. Student's t-tests were employed to perform intra-group (baseline vs. treatment) comparisons. Differences were considered to be statistically significant at p <0.05. SAS® version 9.2 (SAS Institute, Cary, NC, USA) was used for the statistical analysis and descriptive statistics of clinical data.
# [2] = system: heart rate in humans; test: Heart rate reduction in humans after administration (background finding); assay type: in vivo, human; conditions: transient heart rate reduction
structure (smiles),measurement,setting,value
"CCC/N=C1\S/C(=C\c2ccc(OC[C@H](O)CO)c(Cl)c2)C(=O)N1c1ccccc1C [ponesimod, (R)-5-[3-chloro-4-(2,3-dihydroxy-propoxy)-benz[Z]ylidene]-2-([Z]-propylimino)-3-o-tolyl-thiazolidin-4-one]",time for mean hourly HR to return to pre-dose values after administration,"[1]; Day 2 first dose, regimens A and B",4 to 5 h
same,decrease in mean hourly HR following administration,[1]; Day 4 to last day of treatment,no further significant decreases
same,mean hourly HR change from baseline at nadir (Holter),"[1]; regimen A (2 mg), Day 2 first dose, 2 h post-dose, mean±SD",−6±7.4 bpm
same,mean hourly HR change from baseline (Holter),"[1]; regimen A (2 mg), mean±SD",−8±5.3 bpm
same,mean AUEC0-12 for HR,"[1]; regimen A, Day 2 first administration, mean±SD",−70.7±38.7 bpm·h
same,time of nadir of mean hourly HR after administration,"[1]; regimen A, Day 2 first dose",2 h
same,mean AUEC0-12 for HR,"[1]; regimen A, Day 3, mean±SD",−105.5±49.0 bpm·h
same,mean hourly HR change from baseline at nadir (Holter),"[1]; regimen B (10 mg), Day 2 first dose, 3 h post-dose, mean±SD",−12±6.9 bpm
same,mean hourly HR change from baseline (Holter),"[1]; regimen B (10 mg), mean±SD",−9±5.7 bpm
same,mean AUEC0-12 for HR,"[1]; regimen B (ponesimod 10 mg), Day 3, mean±SD",−146.6±59.8 bpm·h
same,mean AUEC0-12 for HR,"[1]; regimen B, Day 2 first administration, mean±SD",−128.6±63.3 bpmh
same,time of nadir of mean hourly HR after administration,"[1]; regimen B, Day 2 first dose",3 h
same,time of maximal heart rate reducing effects after administration,[2],1 to 3 h
